# PubChem BioAssay (NCI)
#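 1) Cells in 96-well plates. 2) Compound, 48 h, 5 concentrations. 3) Linear interpolation between surrounding doses. 4) Unreached endpoint = highest concentration. TGI marks complete inhibition of growth.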
# Tests used:
# Experiment in all cases: NCI anticancer screen, dose series, 48 h
# [1] = tested on: 786-0 renal
# [2] = tested on: A498 renal
# [3] = tested on: A549 NSCLC
# [4] = tested on: ACHN renal
# [5] = tested on: BT-549 breast
# [6] = tested on: CAKI-1 renal
# [7] = tested on: CCRF-CEM leukemia
# [8] = tested on: COLO 205 colon
# [9] = tested on: DU-145 prostate
# [10] = tested on: EKVX NSCLC
# [11] = tested on: HCC-2998 colon
# [12] = tested on: HCT-116 colon
# [13] = tested on: HCT-15 colon
# [14] = tested on: HL-60(TB) leukemia
# [15] = tested on: HOP-62 NSCLC
# [16] = tested on: HOP-92 NSCLC
# [17] = tested on: HS 578T breast
# [18] = tested on: HT29 colon
# [19] = tested on: IGROV1 ovarian
# [20] = tested on: K-562 leukemia
# [21] = tested on: KM12 colon
# [22] = tested on: LOX IMVI melanoma
# [23] = tested on: M14 melanoma
# [24] = tested on: MALME-3M melanoma
# [25] = tested on: MCF7 breast
# [26] = tested on: MDA-MB-231 breast
# [27] = tested on: MDA-MB-435
# [28] = tested on: MDA-N
# [29] = tested on: MOLT-4 leukemia
# [30] = tested on: NCI-H226 lung
# [31] = tested on: NCI-H23 lung
# [32] = tested on: NCI-H460 lung
# [33] = tested on: NCI-H522 lung
# [34] = tested on: NCI/ADR-RES ovarian
# [35] = tested on: OVCAR-3 ovarian
# [36] = tested on: OVCAR-4 ovarian
# [37] = tested on: OVCAR-5 ovarian
# [38] = tested on: OVCAR-8 ovarian
# [39] = tested on: PC-3 prostate
# [40] = tested on: RXF 393 renal
# [41] = tested on: SF-268 CNS
# [42] = tested on: SF-295 CNS
# [43] = tested on: SF-539 CNS
# [44] = tested on: SK-MEL-28 melanoma
# [45] = tested on: SK-MEL-5 melanoma
# [46] = tested on: SK-OV-3 ovarian
# [47] = tested on: SN12C renal
# [48] = tested on: SNB-19 CNS
# [49] = tested on: SNB-75 CNS
# [50] = tested on: SW-620 colon
# [51] = tested on: T-47D breast
# [52] = tested on: TK-10 renal
# [53] = tested on: U251 CNS
# [54] = tested on: UACC-257 melanoma
# [55] = tested on: UACC-62 melanoma
# [56] = tested on: UO-31 renal
# [57] = tested on: RPMI-8226 leukemia
# [58] = tested on: SK-MEL-2 melanoma
smiles,measurement,setting,value
O=C(O)C(F)(F)C(F)(F)C(F)(F)C(F)(F)C(F)(F)C(F)(F)C(F)(F)C(F)(F)F,TGI,[1],> 100 µM
same,TGI,[2],> 100 µM
same,TGI,[3],> 100 µM
same,TGI,[4],> 100 µM
same,TGI,[5],> 100 µM
same,TGI,[6],> 100 µM
same,TGI,[7],> 100 µM
same,TGI,[8],> 100 µM
same,TGI,[9],> 100 µM
same,TGI,[10],> 100 µM
same,TGI,[11],> 100 µM
same,TGI,[12],> 100 µM
same,TGI,[13],> 100 µM
same,TGI,[14],62.4 µM
same,TGI,[15],> 100 µM
same,TGI,[16],58.7 µM
same,TGI,[17],> 100 µM
same,TGI,[18],> 100 µM
same,TGI,[19],> 100 µM
same,TGI,[20],92.4 µM
same,TGI,[21],> 100 µM
same,TGI,[22],> 100 µM
same,TGI,[23],> 100 µM
same,TGI,[24],> 100 µM
same,TGI,[25],> 100 µM
same,TGI,[26],> 100 µM
same,TGI,[27],> 100 µM
same,TGI,[28],> 100 µM
same,TGI,[29],> 100 µM
same,TGI,[30],> 100 µM
same,TGI,[31],> 100 µM
same,TGI,[32],> 100 µM
same,TGI,[33],> 100 µM
same,TGI,[34],> 100 µM
same,TGI,[35],> 100 µM
same,TGI,[36],> 100 µM
same,TGI,[37],> 100 µM
same,TGI,[38],> 100 µM
same,TGI,[39],> 100 µM
same,TGI,[40],> 100 µM
same,TGI,[41],> 100 µM
same,TGI,[42],> 100 µM
same,TGI,[43],> 100 µM
same,TGI,[44],> 100 µM
same,TGI,[45],> 100 µM
same,TGI,[46],86.6 µM
same,TGI,[47],> 100 µM
same,TGI,[48],> 100 µM
same,TGI,[49],> 100 µM
same,TGI,[50],> 100 µM
same,TGI,[51],> 100 µM
same,TGI,[52],> 100 µM
same,TGI,[53],> 100 µM
same,TGI,[54],> 100 µM
same,TGI,[55],> 100 µM
same,TGI,[56],> 100 µM
COc1ccc(-c2nc(N3CCCC3)no2)cc1,TGI,[1],> 100 µM
same,TGI,[2],> 100 µM
same,TGI,[3],> 100 µM
same,TGI,[4],> 75 µM
same,TGI,[5],> 100 µM
same,TGI,[6],> 100 µM
same,TGI,[7],> 71.5 µM
same,TGI,[8],> 100 µM
same,TGI,[9],> 100 µM
same,TGI,[10],> 100 µM
same,TGI,[11],> 100 µM
same,TGI,[12],> 100 µM
same,TGI,[13],> 100 µM
same,TGI,[14],> 100 µM
same,TGI,[15],> 100 µM
same,TGI,[16],> 94 µM
same,TGI,[17],> 100 µM
same,TGI,[18],> 100 µM
same,TGI,[19],> 100 µM
same,TGI,[20],> 100 µM
same,TGI,[21],> 100 µM
same,TGI,[22],> 100 µM
same,TGI,[23],> 100 µM
same,TGI,[24],> 100 µM
same,TGI,[25],> 100 µM
same,TGI,[26],> 100 µM
same,TGI,[27],> 100 µM
same,TGI,[28],> 100 µM
same,TGI,[29],> 100 µM
same,TGI,[30],> 100 µM
same,TGI,[31],> 100 µM
same,TGI,[32],> 100 µM
same,TGI,[33],> 94.6 µM
same,TGI,[34],> 100 µM
same,TGI,[35],> 100 µM
same,TGI,[36],> 100 µM
same,TGI,[37],> 100 µM
same,TGI,[38],> 100 µM
same,TGI,[39],> 100 µM
same,TGI,[57],> 100 µM
same,TGI,[40],> 72.4 µM
same,TGI,[41],> 100 µM
same,TGI,[42],> 100 µM
same,TGI,[43],> 100 µM
same,TGI,[58],> 100 µM
same,TGI,[44],> 100 µM
same,TGI,[45],> 100 µM
same,TGI,[46],> 100 µM
same,TGI,[47],> 100 µM
same,TGI,[48],> 100 µM
same,TGI,[49],> 94.8 µM
same,TGI,[50],> 100 µM
same,TGI,[51],> 100 µM
same,TGI,[52],> 100 µM
same,TGI,[53],> 100 µM
same,TGI,[54],> 100 µM
same,TGI,[55],> 100 µM
same,TGI,[56],> 100 µM
Oc1ccc(C=NCC2CCCN3CCCCC23)cc1 (centres undefined),TGI,[1],36.7 µM
same,TGI,[2],83.9 µM
same,TGI,[3],> 62.8 µM
same,TGI,[4],34.9 µM
same,TGI,[5],61.5 µM
same,TGI,[6],39.5 µM
same,TGI,[8],> 66.7 µM
same,TGI,[9],31.3 µM
same,TGI,[10],> 75.4 µM
same,TGI,[11],40.4 µM
same,TGI,[12],49.5 µM
same,TGI,[13],63 µM
same,TGI,[15],> 75.1 µM
same,TGI,[16],67.3 µM
same,TGI,[17],85.5 µM
same,TGI,[18],30.7 µM
same,TGI,[19],> 67.8 µM
same,TGI,[20],> 100 µM
same,TGI,[21],35.3 µM
same,TGI,[22],> 100 µM
same,TGI,[23],> 57.6 µM
same,TGI,[24],74.1 µM
same,TGI,[25],> 100 µM
same,TGI,[26],74.8 µM
same,TGI,[27],27 µM
same,TGI,[28],39.4 µM
same,TGI,[29],> 100 µM
same,TGI,[30],58.4 µM
same,TGI,[31],> 62 µM
same,TGI,[32],73.4 µM
same,TGI,[33],47.3 µM
same,TGI,[34],> 100 µM
same,TGI,[35],> 69.3 µM
same,TGI,[36],42.3 µM
same,TGI,[37],> 59.5 µM
same,TGI,[38],> 100 µM
same,TGI,[39],> 100 µM
same,TGI,[57],86 µM
same,TGI,[40],43.9 µM
same,TGI,[41],> 68.5 µM
same,TGI,[42],> 76.9 µM
same,TGI,[43],> 100 µM
same,TGI,[58],49.4 µM
same,TGI,[44],38.6 µM
same,TGI,[45],51.4 µM
same,TGI,[46],97.4 µM
same,TGI,[47],41.9 µM
same,TGI,[48],63.3 µM
same,TGI,[49],> 96.5 µM
same,TGI,[51],71.3 µM
same,TGI,[52],55.5 µM
same,TGI,[53],34.8 µM
same,TGI,[54],62.3 µM
same,TGI,[55],> 69.5 µM
same,TGI,[56],> 56.7 µM
